Assay results: patent US10512667B2, “Compositions and methods for treating conditions related to adrenocortical activity and/or excessive steroid production” (The Regents of the University of Michigan, priority 2017, dated 2019)
Entries after “also recorded” stand apart in the source; their conditions may differ.

Tests used:
BD140C cells = assay: Cellular ATP level (CellTiter-Glo); format: cell-based
Description: (§1) The ATP levels of cells were measured by lysis in CellTiter-Glo reagent (Promega), and measurement of the luminescence.
(§2) After 48 h, 20-80 μl of medium was removed from each well and replaced with 20 μl of each compound diluted to 6× of the final concentration in the culture medium to produce a final volume of 120 μl. The cells were incubated at 37 C in 5% CO2 atmosphere for a time ranging from 15 min to 24 h. The medium was removed and immediately replaced with 50 μl of CellTiter-Glo luminescence cell viability assay reagent (Promega). The cells were lysed by agitation at room temperature for 20 min in the dark. The luminescence was measured using a SpectraMax M5 microplate reader (Molecular Devices) with a 0.5 s acquisition time. The luminescence (RLU) values for control cells ranged from 5000 to 20000 RLU in all experiments, and were scaled by a factor of 0.001 to plot all graphs.

H295R cells [1] = assay: Cholesterol efflux into serum-free medium with apoA1; format: cell-based; details: serum-free medium containing apoA-I, 4 h
Description: Cholesterol efflux was measured by replacing the culture medium with serum-free medium supplemented with 5 μg/ml apoA1 (Sigma) and the indicated compounds. After the indicated time, the serum-free medium was collected, and the cholesterol concentration was measured using the fluorometric enzyme-linked assay (Cayman Chemical).
After 48 h, the medium was removed and replaced with 50 μl serum-free medium supplemented with 5 μg/mL apoA1. After the indicated time, the supernatant containing the effluxed cholesterol, was transferred to a new 96-well plate. A cholesterol detection reagent (Cayman Chemical) consisting of cholesterol assay buffer, cholesterol assay detector (10-acetyl-3,7-dihydroxyphenoxazine [ADHP]), horseradish peroxidase, cholesterol oxidase, and cholesterol esterase was added, and the reactions were incubated for 30 min at 37 C. The fluorescence intensities were measured using ex. […] 590 nm. The cholesterol concentrations were calculated by interpolation between the values produced by cholesterol standards that were analyzed in parallel.

H295R cells [2] = assay: Cortisol secretion (indirect ELISA); format: cell-based
Description: Cortisol secretion was measured by replacing the culture medium with fresh medium containing the indicated compounds. The medium was collected at the indicated times. The cortisol concentration in the medium was measured using indirect ELISA (Arbor Assays).
After 48 h, the medium was removed and replaced with 50 μl of fresh medium. After the indicated incubation time, aliquots of the supernatant ranging from 0.5 to 10 μl were diluted in 50 μl of medium were used to measure the amount of cortisol secreted. Cortisol detection and quantification were performed by indirect ELISA according to the manufacturer's protocol (Arbor Assays #K003).

H295R cells [3] = assay: Cholesterol crystallization and extracellular cholesterol associated with cells; format: cell-based
Description: To quantify cholesterol crystallization, experiments were conducted that measured the total extracellular cholesterol that was associated with the cells. After culturing cells with the indicated compounds, the culture medium was removed. Medium lacking cholesterol was added to the cells, and the extracellular cholesterol that was released into the wash medium was collected after 30 seconds. To establish if the cholesterol that was released from the cells was exported by ABCA1, the wash step was performed in parallel using media with and without 50 μM glibenclamide, which inhibits ABCA1 activity. The total amount of cell-associated cholesterol that was released into the wash medium was measured using a fluorometric enzyme-linked assay (Cayman Chemical). Cholesterol esters were hydrolyzed using cholesterol esterase. Cholesterol was oxidized by cholesterol oxidase, producing hydrogen peroxide. The hydrogen peroxide was reacted with 10-acetyl-3,7-dihydroxyphenoxazine (ADHP) in the presence of horseradish peroxidase to produce resorufin. Resorufin fluorescence was measured using 555 nm exitation and 590 nm emission wavelengths in a SpectraMax M5 microplate reader (Molecular Devices).
The medium was removed and replaced with 50 μl serum-free medium supplemented with 5 μg/mL apo-AI (without or with 50 μM glyburide to detect ABCA1 transporter-dependent efflux) for either 30 sec or 1 h at 37 C in 5% CO2 atmosphere. After the indicated time, the supernatant, was transferred to a new 96-well plate and a fluorometric-base cholesterol detection assay cocktail was added.

H295R cells [4] = assay: Cell morphology by phase contrast microscopy; format: cell-based; details: 30 h, phase contrast, hydrochloride
Description: FIG. 4E: […] The cells were cultured with DMSO vehicle (upper images) or with 40 μM ATR-101 (lower images) alone (left images), or in combination with 1.5 mM MβCD (middle images), or in combination with 40 μM cholesterol (right images). Cell morphology was visualized by phase contrast microscopy using a 10× objective. The images are representative of 5 fields under each set of culture conditions. The scale bars denote 100 μm.

H295R cells [5] = assay: Resazurin reducing potential; format: cell-based; details: 32 μM ATR-101
Description: FIG. 4F: […] The cells were cultured with DMSO vehicle or 32 μM ATR-101 alone, or together with 2 mM MβCD. Resazurin fluorescence intensity was measured using a microplate reader at the indicated times at 37 C. The background signal of wells without resazurin was subtracted. […] DMSO control, *P<0.05).

[6] = tested on: guinea pig adrenal glands; details: cited from earlier work
cholesterol-rich tissues = details: cynomologous monkeys; cited from earlier work
ACAT = details: cited from earlier work
H295R cells [7] = assay: Cellular ATP level (CellTiter-Glo);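 note: ATP quantified by luminescence after lysing the cells in CellTiter-Glo reagent, with compound exposure at 37 °C under 5% CO2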
Description: as §1, §2

Structure (SMILES): CC(C)c1cccc(C(C)C)c1NC(=O)NCC1(c2ccc(N(C)C)cc2)CCCC1.Cl [ATR-101, N-(2,6-bis(1-methylethyl)phenyl)-N′-((1-(4-(dimethylamino)phenyl)cyclopentyl)methyl)urea hydrochloride]
- ATP level, compound alone (BD140C cells; 4 h): reduced the ATP level
- ATP level, compound alone (BD140C cells; 24 h): reduced the ATP levels
- cholesterol efflux, compound alone (H295R cells [1]): inhibited cholesterol efflux
- basal and forskolin-stimulated cortisol secretion (H295R cells [2]; 100 μM ATR-101, with or without 100 μM forskolin): blocked both basal and forskolin-stimulated cortisol secretion
- cortisol secretion, compound alone (H295R cells [2]; cortisol in medium, 4 h or time course, hydrochloride): inhibited cortisol secretion
- cholesterol crystallization at the plasma membrane, compound alone (H295R cells [3]; 40 μM ATR-101, 24 h, hydrochloride): associated with crystals that emanated from the cell membrane; also recorded: cholesterol crystallization at the plasma membrane
- total extracellular cholesterol associated with cells (H295R cells [3]; 4 h, 100 μM ATR-101 or 40 μM cholesterol): increased the total extracellular cholesterol
- cell morphology, compound alone (H295R cells [4]): small, rounded and weakly attached to the plate
- resazurin fluorescence (H295R cells [5]): sustained increase in resazurin fluorescence
- increase of the cholesterol level of adrenal glands ([6]; after 24 hours): 3 fold
- onset of rise of the cholesterol level of adrenal glands ([6]; after ATR-101 administration): rises within an hour
- tissue distribution of toxicity (cholesterol-rich tissues): limited to cholesterol-rich tissues, including the adrenal cortex, the corpus luteum, and sebaceous glands
- ACAT activity (ACAT): inhibit ACAT activity
- concentration required for ATP depletion and caspase activation relative to the concentration that inhibited cholesterol esterification (H295R cells [7]; ACC-derived cells, 4 h): more than two orders of magnitude higher
- time after ATR-101 addition at which ATP depletion was detected (H295R cells [7]; H295R cells, 100 μM ATR-101): 30 min
- fold lower concentration that reduced the ATP level in combination than required separately (H295R cells [7]; H295R cells, ATR-101 and rhodamine-123 in combination, 4 h): 10 fold
- ATP level, compound alone (H295R cells [7]; H295R cells, serum-containing medium, 4 h): reduced the ATP level
- ATP level, compound alone (H295R cells [7]; H295R cells, serum-containing medium, 24 h): reduced the ATP levels
- ATP level, compound alone (H295R cells [7]; H295R cells, serum-free medium, 4 h): caused ATP depletion
